In patent US20200165287A1, “SALT OF (SS)-ADENOSYL METHIONINE WITH INOSITOL HEXAPHOSPHATE, AND PROCESS FOR THE PREPARATION THEREOF” (GNOSIS S.p.A., priority 2017, published 2020):

Columns and labels:
[1] = accelerated stability test, thermostatic stove at +55° C., 5 days; format: physicochemical
Procedure: The product obtained as described in Example 6 (comprising SAMe and phytic acid) and a sample of SAMe inositol hexaphosphate obtained as described in Example 5 are subjected to an accelerated stability test, incubated in a thermostatic stove at +55° C., and the analyses are repeated after 5 days.
The samples are analysed for the following values: • SAMe ion content (total of all enantiomers) determined by HPLC and expressed as % by weight • enantiomeric purity, determined by HPLC and expressed as % of (SS) isomer • active ingredient content, calculated by multiplying the previous two values and expressed as % by weight of (SS)SAMe • overall purity, determined by HPLC as SAMe area/total area of chromatogram, expressed as area %. The figure comprises the values of all known degradation impurities.

[2] = stability test, storage at +25° C. in a thermostatic stove; format: physicochemical
Procedure: Some samples of the products obtained as described in the previous examples are subjected to stability tests, storing them at +25° C., in a thermostatic stove.
The SAMe ion content analysis (FIG. 3) and the diastereomeric purity relative to the (SS) isomer (FIG. 4) are periodically repeated, and the result is compared with the starting value for the same sample, obtaining the results reported.
The data obtained with the product obtained according to EP 1896489 and two commercial samples of SAMe, 1,4-butanedisulphate salt (SD4 Test 1) and Pates salt (batch S1S1057B), are compared.

[3] = Pharmacokinetic profile in the rat (SAMe plasma levels after oral administration by cannula); format: in vivo, Sprague Dawley rats; details: by cannula in water, 134 mg/kg and 95 mg/kg, equal SAMe ion dose, 0-24 h (FIG. 1, FIG. 2)
Procedure: 70 Sprague Dawley rats (35 male and 35 female), aged 7-9 weeks and weighing 176-200 g, were acclimatized in a cage for two weeks before the start of the treatment, maintained at +22° C. and 55% relative humidity. The rats were fed on 4RF 21 (Mucedola) feed, and weighed before the beginning and at the end of the test. At the time of treatment, 32 animals per group (16 males and 16 females) were selected from those with the most similar weights, and assigned to the two treatments.
The product was administered by cannula, dissolved in water, at two dose levels, namely 134 mg/kg and 95 mg/kg. The rats were fasted overnight before administration and for a further two hours after administration. The two equimolar doses guaranteed an equal intake of SAMe ion.
The blood levels of SAMe were assayed by taking a sample from the tail vein at fixed intervals, at times 0 (pre-administration), 0.5, 1, 1.5, 2, 4, 8 and 24 hours after administration. The blood samples were centrifuged after addition of EDTA to separate the plasma from the cell fraction. The plasma was then analysed by HPLC according to the method reported in Wise, Fullerton J. Liq. Chromatogr. […]
The SAMe plasma concentration values are also used to determine, according to the Area Under Curve (AUC) calculation, the total quantity of active ingredient absorbed, obtaining the values set out in FIG. 2.

Row | Compound | Purity (% area), final value ([1]; HPLC SAMe area/total area, after 5 days at +55° C.) | Purity (% area), starting value ([1]; HPLC SAMe area/total area, starting value) | degradation by isomerization of (SS)SAMe after the stress test ([1]; after 5 days at +55° C.) | (SS)SAMe content (active ingredient, SAMe content x enantiomeric purity), final value ([1]; after 5 days at +55° C., % by weight) | (SS)SAMe content (active ingredient, SAMe content x enantiomeric purity), starting value ([1]; starting value, % by weight) | stability of (SS)SAMe isomer content / diastereomeric purity versus starting value (FIG. 4) [2] | absorption (AUC) and plasma concentration of SAMe versus SAMe Pates [3]
1 | C[S@@+](CC[C@H](N)C(=O)[O-])C[C@H]1O[C@@H](n2cnc3c(N)ncnc32)[C@H](O)[C@@H]1O.O=P(O)(O)O[C@H]1[C@H](OP(=O)(O)O)[C@@H](OP(=O)(O)O)[C@H](OP(=O)(O)O)[C@@H](OP(=O)(O)O)[C@H]1OP(=O)(O)O [AT1003, SAMe inositol hexaphosphate] | 90.0% | 95.98% | maintains an excess of the (SS)SAMe form | 21.28% | 26.59% | stable for longer | –
2 | C[S+](CC[C@H](N)C(=O)[O-])C[C@H]1O[C@@H](n2cnc3c(N)ncnc32)[C@H](O)[C@@H]1O.O=S(=O)(O)CCCCS(=O)(=O)O (some centres unmarked) [SD4 Test 1, reference compound] | – | – | – | – | – | stable for longer | –
3 | SAMe inositol hexaphosphate [SAMe IP6] | – | – | – | – | – | – | better absorption and a higher plasma concentration of active ingredient
